Common to all, as to assay type: cell-based
Experiment [1] relates to Raji cells. In words: cell death induced by a pro-apoptotic chemical agent (nanoluciferase release and TO-PRO-3 flow cytometry). The following applies: 48 hours, increasing concentrations; regardless of the method for measuring the mortality. The protocol: Raji cells transformed to stably express nanoluciferase (50 000 cells per well) are cultured for 48 hours at 37° C. (under a humidified atmosphere containing 5% CO2) in the presence of increasing concentrations of staurosporine, which is a pro-apoptotic drug, in RPMI-1640 medium containing 10% of FCS, and in the presence or absence of 0.2% of triton X-100 (to determine the maximum release). At the end of the incubation, 25 μl of supernatant are recovered from each well, transferred into a white “half-well” plate, mixed with 25 μl of NanoGlo® substrate diluted to 1/50 in D-PBS, incubated for 3 minutes and read on a Mithras LB940 luminometer. The results of the reading are expressed in RLU (relative luminescence units). The percentage of dead cells for each concentration of staurosporine is determined according to the formula (RLU[triton-free medium])/(RLU[0.2% triton])×100.
After removing the supernatant, the remainder of the cells are resuspended, extemporaneously mixed with a final concentration of 0.25 μM of the vital marker TO-PRO-3 (Life Technologies) and acquired on a C6 flow cytometer (BD/Accuri). The percentage of dead cells is determined during the analysis of the cytometry data as the percentage of cells having integrated the TO-PRO-3.
Two identical independent experiments were carried out, the results of which are presented on graphs A and B of FIG. 28. […]
(A flow cytometer gives signals particle by particle.)

For experiment [2], the system named is CHO cells stably expressing human TNF-alpha in its membraned form. In words: anti-TNF-alpha CDC assay, 51Cr release method. The following applies: for mean potency: mean±SD. The protocol: (§1) The method for measuring nanoluciferase release was compared to the chromium method in a third model, that of the anti-TNF-alpha antibody adalimumab (Humira®). The present example illustrates the implementation thereof in an assay for measuring the CDC activity. For this, CHO cells pretransformed and selected to stably express human TNF-alpha in its membraned form were transformed to stably express nanoluciferase. […] Briefly, these cells, labeled or not labeled with ^51Cr, were incubated in the presence of increasing concentrations of adalimumab (Humira®) and of a source of complement (from guinea pig (Sigma)). The specific lysis was then measured by the appropriate method (chromium release or nanoluciferase release).
(§2) The percentage of specific lysis obtained for each concentration X is calculated in the same way for the two types of methods, on the basis of the measurements of radioactivity (in CCPM) or of luminescence (in RLU) according to the formula
(§3) The percentages of specific lysis are represented along the y-axis, each point (black circle for nanoluciferase and white squares for ^51Cr) representing the mean of the nine determinations (3 replicates in 3 independent experiments) and the vertical bars representing the standard deviations. The data were modeled by means of a 4-parameter sigmoidal regression using the GraphPad Prism software.

For experiment [3] the test system is unchanged. In words: anti-TNF-alpha CDC assay, nanoluciferase release method. The following applies: for mean potency: mean±SD. The protocol:
as §1, §2, §3

Experiment [4] deals with CHO cells stably expressing TNF-alpha and nanoluciferase. In words: anti-TNF-alpha ADCC assay, 51Cr release method. The following applies: mean±SD of 3 experiments. The protocol:
(§4) The nanoluciferase method was compared to the ^51Cr method in an anti-TNF-alpha ADCC assay. For this, the CHO cells described in example 7, stably expressing TNF-alpha and nanoluciferase, were used, as was a standard range of adalimumab and of variations at 80% and 125% of this range. Three independent experiments were carried out, according to the same methodology as in the previous examples.

Experiment [5] has the same test system. Nature of the experiment: anti-TNF-alpha ADCC assay, nanoluciferase release method. The following applies: mean±SD of 3 experiments. The protocol:
as §4

The test system of experiment [6] is Raji target cells. In words: anti-CD20 ADCC assay, 51Cr release method. The protocol:
(§5) The same Raji cells expressing nanoluciferase were or were not labeled with ^51Cr and were used in parallel in the assay.
(§6) Raji target cells transformed to stably express nanoluciferase were incubated or not incubated for 1 hour in a saline solution of Na2CrO4 equivalent to 100 μCi of ^51Cr per million cells, then washed 4 times with RPMI-1640, 10% FCS, and counted. The cells (3000 per well), labeled or not labeled with ^51Cr, were then incubated at 37° C. in a humidified atmosphere at 5% CO2 in flat-bottomed 96-well plates treated for cell culture, in the presence of increasing concentrations of the rituximab antibody (MabThera®) and of cytotoxic effector cells (T lymphocytes expressing CD16, 30 000 cells per well) in RPMI-1640 supplemented with 5% of FCS.
(§7) After 4 hours of incubation, the percentage of specific lysis is measured according to the corresponding method (release of ^51Cr or of nanoluciferase depending on whether the cells have or have not been labeled with chromium): 25 μl of supernatant of the ^51Cr-labeled cells are recovered and deposited on a Lumaplate® (Perkin Elmer). At the same time, for the cells not labeled with ^51Cr, 25 μl of supernatant are recovered from each well, transferred into white “half-well” 96-well plates, mixed with 25 μl of NanoGlo® substrate diluted to 1/50 in D-PBS, incubated for 3 minutes and read on a Mithras LB940 luminometer (Berthold Technologies). After drying overnight, the radioactivity of the supernatants deposited in the Lumaplate® is measured in a Microbeta-Jet counter (Perkin Elmer) and expressed in CCPM (corrected count per minute) after standardization of the detectors.
(§8) The percentage of specific lysis obtained for each concentration X is calculated in the same way for the two types of methods, from the measurements of radioactivity (in CCPM) or of luminescence (in RLU) according to the formula
(§9) The percentages of specific lysis are represented in FIG. 9 along the y-axis, each point representing the mean of the nine determinations (3 replicates in 3 independent experiments) and the vertical bars representing the standard deviations. The data were modeled by means of a 4-parameter sigmoidal regression using the GraphPad Prism software.
(§10) This approach also makes it possible to evaluate the accuracy of the method according to the ICH-Q2(R1) criteria.

The test system of experiment [7] is Raji target cells. In words: anti-CD20 ADCC assay, nanoluciferase release method. The protocol:
as §5, §6, §7, §8, §9, §10

In experiment [8] the test system is Raji target cells. Nature of the experiment: anti-CD20 CDC assay, 51Cr release method. The protocol: as §6, §7, §8, §9, §10
(§11) Using the same type of target cells as that of example 4, the nanoluciferase method was compared to the ^51Cr method in an anti-CD20 CDC assay. The methodology applied was the same as that described in example 4, the cytolytic system being formed by a source of complement. In the same way, a standard range of antibody (rituximab) was used, and also 80% and 125% modified concentration ranges. Three independent experiments were carried out, one of which was carried out by a second operator.

Experiment [9] has as its system Raji target cells. Nature of the experiment: anti-CD20 CDC assay, nanoluciferase release method. The protocol:
as §6, §7, §8, §9, §10, §11

[10] abbreviates: 51Cr, guinea pig complement, mean±SD over the whole of the ranges in the 3 experiments.
Setting [11] is: guinea pig complement, mean±SD over the whole of the ranges in the 3 experiments.
Where [12] appears, read: 80% range, mean±SD of 3 experiments.
Where [13] appears, read: 125% range, mean±SD of 3 experiments.
Setting [14] is: mean±SD of 3 experiments, 100% range.
Where [15] appears, read: mean±SD, 80%, 100% and 125% ranges, 3 experiments, 4 h, CD16 T lymphocyte effectors.
[16] abbreviates: 100% range, mean±SD of 3 experiments.
Where [17] appears, read: complement source, mean±SD, all of the 80%, 100% and 125% ranges.

In general, Emax refers to the size of the effect at its maximum, as opposed to the concentration needed. One may read the EC50 as the concentration giving half of the maximal effect. A lower EC50 goes with higher potency in that assay.

On to `CN[C@@H]1C[C@H]2O[C@@](C)([C@@H]1OC)n1c3ccccc3c3c4c(c5c6ccccc6n2c5c31)C(=O)NC4` [staurosporine], for which the “mortality of the target cells” value in [1] was “proportional relationship between the concentration of staurosporine and the mortality of the target cells”.
As for adalimumab, the mean potency in [2] (51Cr, 80% range) is listed as 91.2±23.6%; in experiment [2] (51Cr, 125% range), 153.9±29.2%; in experiment [3] (80% range), 83.4±10.1%; in experiment [3] (125% range), 131.7±47.2%; in experiment [4] (80% range), 91.4±43.3%; in [4] (125% range), 138.5±43.9%. Besides, the mean potency in experiment [5] (80% range) is on record as 75.5±15.5%; in experiment [5] (125% range) it was 114.2±22.8%. Moreover, the maximum response (Emax) is on record as 50.4±5.6% in experiment [2] (setting [10]) and 45.7±5.1% in [3] (setting [11]). The Emin is on record as 3.2±2.8% in experiment [2] (setting [10]) and 0.9±1.5% in experiment [3] (setting [11]). Also, the EC50 in experiment [2] (chromium, standard ranges, mean±SD of 3 experiments) stood at 0.1508 ± 0.015 µg/mL; in experiment [3] (standard ranges, mean±SD of 3 experiments), 0.1569 ± 0.0234 µg/mL.
Turning to rituximab, the “potency (EC50[100%]/EC50[X%]×100)” value in [6] (setting [12]) stood at 76.7±10%; in experiment [6] (setting [13]) it was 131.9±11.9%; in experiment [7] (setting [12]), 83.6±22%; in [7] (setting [13]), 119.5±22.7%. The EC50 was 0.0552 ± 0.0156 µg/mL in [6] (setting [14]), 0.0318 ± 0.0073 µg/mL in experiment [7] (setting [14]), 0.1567 ± 0.0301 µg/mL in experiment [8] (setting [16]) and 0.0731 ± 0.0099 µg/mL in [9] (setting [16]). In addition, the results for the “Emax (maximum lysis percentage)” value in experiment [6] (setting [15]) and in experiment [7] (setting [15]) were 75.7±6.0% and 73.6±8.4%, respectively. The “Emin (minimum lysis percentage)” value in experiment [6] (setting [15]) is reported as 1.0±1.5%; in [7] (setting [15]), 1.2±1.2%. The potency in experiment [8] (80% range, mean±SD) was 69.6±12.3%; in [8] (125% range, mean±SD) it was 131.5±16.4%; in experiment [9] (80% range, mean±SD), 65.0±12.9%; in experiment [9] (125% range, mean±SD), 105.8±8.2%. The Emax is 88.6±7.8% in [8] (setting [17]) and 95.6±7.0% in [9] (setting [17]). Also, the Emin is 3.0±3.4% in experiment [8] (setting [17]) and −0.3±3.2% in [9] (setting [17]).
